The IC50 is the concentration needed to halve the response being measured. A low value points to greater potency in that assay.

We go through 21 compounds from US20170088545A1, “CARBOXAMIDE INHIBITORS” (Norvartis AG, priority 2014, published 2017).

In assay [1] the target is Smurf-1 (Homo sapiens, UniProt Q9HCE7). Briefly: HECT E3 ligase autoubiquitinylation TR-FRET assay, Smurf-1. It counts as biochemical. The note with it: 45 min incubation, 8-point dose-response. The text has this: (§1) To determine the HECT E3 ligase selectivity of the compounds, a panel of biochemical HECT E3 ligase autoubiquitinylation assays was employed (Smurf-1, Smurf-2, WWP1, WWP2, ITCH, Nedd4, Nedd4L and E6AP). The conjugation of ubiquitin to a protein substrate is a multistep process. In an initial ATP-requiring step, a thioester bond is formed between the carboxyl terminus of ubiquitin and an internal cystein residue of the ubiquitin-activating enzyme (E1). Activated ubiquitin is then transferred to a specific cystein residue of an ubiquitin-conjugating enzyme (E2). E2s donate ubiquitin to a HECT E3 ligase (E3) from which it is transferred to the substrate protein. HECT E3 ligases can auto-ubiquitinylate. This event is detected in the TR-FRET (Time-Resolved Fluorescence Resonance Energy Transfer) assay used in this panel. The reaction mix contains E1, E2, tagged-E3, biotin-conjugated ubiquitin, the compound and ATP in a suitable buffer and is incubated for 45 minutes to allow auto-ubiquitinylation of the E3 ligase. To measure the extent of ubiquitinylated E3 ligase by TR-FRET, the donor fluorophore Europium cryptate (Eu3+ cryptate), conjugated to streptavidin which subsequently binds to biotinylated ubiquitin, and the modified allophycocyanin XL665 (HTRF® primary acceptor fluorophore) coupled to a tag-specific antibody (HA, His or GST), which recognizes the respective E3 ligase fusion proteins, are added after the reaction is complete. When these two fluorophores are brought together by a biomolecular interaction (in this case ubiquitinylation of the E3 ligase), a portion of the energy captured by the Cryptate during excitation is released through fluorescence emission at 620 nm, while the remaining energy is transferred to XL665. This energy is then released by XL665 as specific fluorescence at 665 nm. Light at 665 nm is emitted only through FRET with Europium.
Chain of Smurf-1 (Q9HCE7 whole entry): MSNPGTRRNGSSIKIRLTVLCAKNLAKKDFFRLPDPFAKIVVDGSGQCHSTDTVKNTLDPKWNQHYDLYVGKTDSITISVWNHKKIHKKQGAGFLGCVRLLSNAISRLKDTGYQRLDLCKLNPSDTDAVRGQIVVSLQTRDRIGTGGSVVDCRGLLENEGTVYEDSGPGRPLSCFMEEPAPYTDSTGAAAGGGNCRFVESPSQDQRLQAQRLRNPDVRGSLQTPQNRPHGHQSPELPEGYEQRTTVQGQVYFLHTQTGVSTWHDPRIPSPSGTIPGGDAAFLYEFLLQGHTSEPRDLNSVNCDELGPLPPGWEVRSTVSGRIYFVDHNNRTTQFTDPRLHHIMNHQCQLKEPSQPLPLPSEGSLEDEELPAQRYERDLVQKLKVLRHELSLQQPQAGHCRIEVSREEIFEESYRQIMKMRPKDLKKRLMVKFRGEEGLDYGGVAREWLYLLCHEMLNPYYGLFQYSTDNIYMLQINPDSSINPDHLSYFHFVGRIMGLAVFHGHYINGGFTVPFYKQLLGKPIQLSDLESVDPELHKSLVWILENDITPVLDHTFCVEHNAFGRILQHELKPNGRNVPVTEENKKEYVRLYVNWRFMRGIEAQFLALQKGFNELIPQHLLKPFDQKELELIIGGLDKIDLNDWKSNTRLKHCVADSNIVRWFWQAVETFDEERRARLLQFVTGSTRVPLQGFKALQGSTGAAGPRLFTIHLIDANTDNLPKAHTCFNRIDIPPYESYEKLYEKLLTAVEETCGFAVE
(§2) Test and reference compounds are prepared at 180× [final] in 90% DMSO, and diluted 1:3 in 90% DMSO.
(§3) For the biochemical assay panel, 50 nl of the test compounds, reference compounds and buffer/DMSO control are transferred to the respective wells of a 384-well white GREINER “SMALL VOLUME” PS plate. The assay panel is run at room temperature on a Biomek FX liquid handling workstation. To the assay plates containing 50 nl compound or control solutions in 90% DMSO, 4.5 ul of E3 ligase solution were added per well, followed by 4.5 ul of the pre-incubated E1/E2/Ub mix or the pre-diluted ubiquitin (LOW control). Plates are shaken vigorously after each addition. In this assay the compound concentrations range from 3 nM to 10 uM in an 8-point dose-response curve.
(§4) After 45 min of incubation the ubiquitinylation reactions were stopped by adding 4.5 ul 2 mM NEM, immediately followed by 4.5 ul of a detection solution including the XL665-labeled antibody and the streptavidin-coupled europium to give a total volume of 18 ul. After an incubation time of 45 min in the dark, the plates are transferred into the Pherastar fluorescence reader to measure the TR-FRET signal.
A general note: Time-resolved FRET reads energy transfer from a long-lived donor to a nearby acceptor.

Assay [2] has as its target Smurf-2 (Homo sapiens, UniProt Q9HAU4). Briefly: HECT E3 ligase autoubiquitinylation TR-FRET assay, Smurf-2. It counts as biochemical. Particulars: 45 min incubation, 8-point dose-response.
Source text: as §1, §2, §3, §4

Chain of Smurf-2 (Q9HAU4 whole entry, species assumed): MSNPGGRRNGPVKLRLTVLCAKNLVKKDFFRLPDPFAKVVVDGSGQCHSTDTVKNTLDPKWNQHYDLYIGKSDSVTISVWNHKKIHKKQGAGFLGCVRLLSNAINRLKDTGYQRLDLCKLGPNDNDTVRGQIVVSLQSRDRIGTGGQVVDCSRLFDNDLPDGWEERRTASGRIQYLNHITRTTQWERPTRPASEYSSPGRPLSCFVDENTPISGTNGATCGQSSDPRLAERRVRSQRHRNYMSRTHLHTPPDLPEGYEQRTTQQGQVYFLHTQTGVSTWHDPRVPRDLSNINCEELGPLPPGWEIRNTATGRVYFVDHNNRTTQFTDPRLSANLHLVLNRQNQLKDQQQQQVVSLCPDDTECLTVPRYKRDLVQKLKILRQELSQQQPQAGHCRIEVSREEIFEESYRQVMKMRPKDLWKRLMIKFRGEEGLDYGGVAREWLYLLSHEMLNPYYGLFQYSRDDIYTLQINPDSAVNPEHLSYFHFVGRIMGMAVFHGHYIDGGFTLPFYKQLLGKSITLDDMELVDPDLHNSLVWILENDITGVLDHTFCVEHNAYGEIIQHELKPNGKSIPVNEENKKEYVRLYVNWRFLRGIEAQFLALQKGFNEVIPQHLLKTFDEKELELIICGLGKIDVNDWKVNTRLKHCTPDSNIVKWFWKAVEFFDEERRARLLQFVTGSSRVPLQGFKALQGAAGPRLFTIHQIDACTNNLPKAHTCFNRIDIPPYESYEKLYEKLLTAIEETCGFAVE

For `Cc1c(C(=O)Nc2c(C)n(C)n(-c3ccccc3F)c2=O)noc1-c1ccc(Cl)cc1Cl` [Example 001, 5-(2,4-Dichlorophenyl)-N-(2-(2-fluorophenyl)-1,5-dimethyl-3-oxo-2,3-dihydro-1H-pyrazol-4-yl)-4-methylisoxazole-3-carboxamide], the concentration for half-maximal inhibition (IC50) is 29.5 nM in assay [1] and above 10 µM in assay [2].

As to `Cc1c(C(=O)Nc2c(C)n(C)n(-c3ccccc3F)c2=O)noc1-c1ccc(C2CC2)cc1Cl` [Example 002, 5-(2-Chloro-4-cyclopropylphenyl)-N-(2-(2-fluorophenyl)-1,5-dimethyl-3-oxo-2,3-dihydro-1H-pyrazol-4-yl)-4-methylisoxazole-3-carboxamide], the values for the 50% inhibitory concentration (IC50) in assay [1] and in assay [2] were 13.4 nM and 3.66 µM, respectively.

As for `Cc1c(NC(=O)c2noc(-c3ccc(OC(F)F)cc3Cl)c2Cl)c(=O)n(-c2ccccc2F)n1C` [Example 003, 4-Chloro-5-(2-chloro-4-(difluoromethoxy)phenyl)-N-(2-(2-fluorophenyl)-1,5-dimethyl-3-oxo-2,3-dihydro-1H-pyrazol-4-yl)isoxazole-3-carboxamide], the IC50 in assay [1] stood at 54.3 nM; in assay [2], 16.8 µM.

Regarding `COc1ccc(-c2onc(C(=O)Nc3c(C)n(C)n(-c4ccccc4F)c3=O)c2C)c(Cl)c1` [Example 006, 5-(2-Chloro-4-methoxyphenyl)-N-(2-(2-fluorophenyl)-1,5-dimethyl-3-oxo-2,3-dihydro-1H-pyrazol-4-yl)-4-methylisoxazole-3-carboxamide], the IC50 in assay [1] is 23.5 nM; in assay [2], 10.8 µM.

Take `Cc1c(C(=O)Nc2c(C)n(C)n(-c3ccccc3F)c2=O)noc1-c1ccc(C(F)(F)F)cc1` [Example 008, N-(2-(2-Fluorophenyl)-1,5-dimethyl-3-oxo-2,3-dihydro-1H-pyrazol-4-yl)-4-methyl-5-(4-(trifluoromethyl)phenyl) isoxazole-3-carboxamide]: the half-inhibitory concentration (IC50) in assay [1] is 883 nM; in assay [2], above 10 µM.

As for `Cc1c(C(=O)Nc2c(C)n(C)n(C3CCCCC3)c2=O)noc1-c1ccc(OC(F)(F)F)cc1Cl` [Example 010, 5-(2-Chloro-4-(trifluoromethoxy)phenyl)-N-(2-cyclohexyl-1,5-dimethyl-3-oxo-2,3-dihydro-1H-pyrazol-4-yl)-4-methylisoxazole-3-carboxamide], the 50% inhibitory concentration (IC50) came to 22.7 nM in assay [1] and 2.74 µM in assay [2].

With `CSc1ccc(-c2onc(C(=O)Nc3c(C)n(C)n(-c4ccccc4F)c3=O)c2C)cc1` [Example 011, N-(2-(2-Fluorophenyl)-1,5-dimethyl-3-oxo-2,3-dihydro-1H-pyrazol-4-yl)-4-methyl-5-(4-(methylthio)phenyl) isoxazole-3-carboxamide], the IC50 in assay [1] is 777 nM; in assay [2] it was above 10 µM.

Turning to `Cc1c(C(=O)Nc2c(C)n(C)n(-c3ccccc3F)c2=O)noc1-c1ccc(N(C)C)cc1` [Example 012, 5-(4-(Dimethylamino)phenyl)-N-(2-(2-fluorophenyl)-1,5-dimethyl-3-oxo-2,3-dihydro-1H-pyrazol-4-yl)-4-methylisoxazole-3-carboxamide], the figures for the IC50 in assay [1] and in assay [2] were 1050 nM and above 10 µM, respectively.

As for `COc1ccc(-c2onc(C(=O)Nc3c(C)n(C)n(-c4ccccc4F)c3=O)c2C)c(C(F)(F)F)c1` [Example 013, N-(2-(2-Fluorophenyl)-1,5-dimethyl-3-oxo-2,3-dihydro-1H-pyrazol-4-yl)-5-(4-methoxy-2-(trifluoromethyl)phenyl)-4-methylisoxazole-3-carboxamide], the 50% inhibitory concentration (IC50) in assay [1] is 102 nM; in assay [2], above 20 µM.

For the compound `Cc1c(C(=O)Nc2c(C)n(C)n(C3CCCCC3)c2=O)noc1-c1ccc(C2CC2)cc1Cl` [Example 019, 5-(2-Chloro-4-cyclopropylphenyl)-N-(2-cyclohexyl-1,5-dimethyl-3-oxo-2,3-dihydro-1H-pyrazol-4-yl)-4-methylisoxazole-3-carboxamide], the concentration for half-maximal inhibition (IC50) came out at 3.5 nM in assay [1] and 3.1 µM in assay [2].

For `COc1ccc(-c2onc(C(=O)Nc3c(C)n(C)n(-c4ccccc4F)c3=O)c2Cl)c(F)c1Cl` [Example 021, 4-Chloro-5-(3-chloro-2-fluoro-4-methoxyphenyl)-N-(2-(2-fluorophenyl)-1,5-dimethyl-3-oxo-2,3-dihydro-1H-pyrazol-4-yl)isoxazole-3-carboxamide], the IC50 in assay [1] is 810 nM; in assay [2] it was above 10 µM.

Take `COc1ccc(-c2onc(C(=O)Nc3c(C)n(C)n(-c4ccccc4F)c3=O)c2Cl)c(F)c1` [Example 022, 4-Chloro-5-(2-fluoro-4-methoxyphenyl)-N-(2-(2-fluorophenyl)-1,5-dimethyl-3-oxo-2,3-dihydro-1H-pyrazol-4-yl) isoxazole-3-carboxamide]: the IC50 is 1160 nM in assay [1] and above 10 µM in assay [2].

As to `Cc1c(NC(=O)c2noc(-c3ccc(Cl)cc3Cl)c2Cl)c(=O)n(C2CCCCC2)n1C` [Example 023, 4-Chloro-N-(2-cyclohexyl-1,5-dimethyl-3-oxo-2,3-dihydro-1H-pyrazol-4-yl)-5-(2,4-dichlorophenyl) isoxazole-3-carboxamide], the IC50 was 2.4 nM in assay [1] and 4.25 µM in assay [2].

With `Cc1c(NC(=O)c2noc(-c3ccc(C4CC4)cc3Cl)c2Cl)c(=O)n(-c2ccccc2F)n1C` [Example 030, 4-Chloro-5-(2-chloro-4-cyclopropylphenyl)-N-(2-(2-fluorophenyl)-1,5-dimethyl-3-oxo-2,3-dihydro-1H-pyrazol-4-yl)isoxazole-3-carboxamide], the IC50 amounted to 13.3 nM in assay [1] and 5.4 µM in assay [2].

As for `COc1ccc(-c2onc(C(=O)Nc3c(C)n(C)n(-c4ccccc4F)c3=O)c2F)c(Cl)c1` [Example 033, 5-(2-Chloro-4-methoxyphenyl)-4-fluoro-N-(2-(2-fluorophenyl)-1,5-dimethyl-3-oxo-2,3-dihydro-1H-pyrazol-4-yl)isoxazole-3-carboxamide], the IC50 was 220 nM in assay [1] and above 20 µM in assay [2].

On to `COc1ccc(-c2onc(C(=O)Nc3c(C)n(C)n(C4CCCCC4)c3=O)c2Br)c(Cl)c1` [Example 034, 4-Bromo-5-(2-chloro-4-methoxyphenyl)-N-(2-cyclohexyl-1,5-dimethyl-3-oxo-2,3-dihydro-1H-pyrazol-4-yl)isoxazole-3-carboxamide], for which the IC50 in assay [1] is 3.7 nM; in assay [2], 5.23 µM.

For the compound `Cc1c(NC(=O)c2noc(-c3ccc(Cl)cc3Cl)c2Br)c(=O)n(-c2ccccc2F)n1C` [Example 037, 4-Bromo-5-(2,4-dichlorophenyl)-N-(2-(2-fluorophenyl)-1,5-dimethyl-3-oxo-2,3-dihydro-1H-pyrazol-4-yl)isoxazole-3-carboxamide], the IC50 in assay [1] was 36 nM; in assay [2], 17.8 µM.

On to `Cc1c(NC(=O)c2noc(-c3ccc(Cl)cc3Cl)c2C2CC2)c(=O)n(C2CCCCC2)n1C` [Example 039, N-(2-Cyclohexyl-1,5-dimethyl-3-oxo-2,3-dihydro-1H-pyrazol-4-yl)-4-cyclopropyl-5-(2,4-dichlorophenyl) isoxazole-3-carboxamide], for which the IC50 in assay [1] worked out at 8.3 nM; in assay [2], 7.5 µM.

As for `Cc1c(NC(=O)c2noc(-c3ccc(Cl)cc3Cl)c2C#N)c(=O)n(-c2ccccc2F)n1C` [Example 042, 4-Cyano-5-(2,4-dichlorophenyl)-N-(2-(2-fluorophenyl)-1,5-dimethyl-3-oxo-2,3-dihydro-1H-pyrazol-4-yl)isoxazole-3-carboxamide], the values for the IC50 in assay [1] and in assay [2] were 450 nM and 19.2 µM, respectively.

In the case of `COc1cc(F)c(-c2onc(C(=O)Nc3c(C)n(C)n(-c4ccccc4F)c3=O)c2C)c(F)c1` [Example 046, 5-(2,6-difluoro-4-methoxyphenyl)-N-(2-(2-fluorophenyl)-1,5-dimethyl-3-oxo-2,3-dihydro-1H-pyrazol-4-yl)-4-methylisoxazole-3-carboxamide], the values for the half-maximal inhibitory concentration (IC50) in assay [1] and in assay [2] were 4150 nM and above 10 µM, respectively.

For `COCc1ccc(-c2onc(C(=O)Nc3c(C)n(C)n(C4CCCCC4)c3=O)c2C)c(Cl)c1` [Example 47, 5-(2-Chloro-4-(methoxymethyl)phenyl)-N-(2-cyclohexyl-1,5-dimethyl-3-oxo-2,3-dihydro-1H-pyrazol-4-yl)-4-methylisoxazole-3-carboxamide], the results for the IC50 in assay [1] and in assay [2] were 41.5 nM and above 20.2 µM, respectively.
